≈ marks a conversion by molar mass, not a printed value.
Experiments:
[1] = test system: E. coli; assay: MIC by agar-dilution technique, E. coli A8; type: cell-based; details: Escherichia coli, No. Code A8, inoculum ~10^5 CFU
Description: (§1) As noted above the cephalosporin derivatives of the invention have antibacterial properties. Thus they are useful antibacterial agents, many of them having a broad spectrum of activity in vitro, against standard laboratory microorganisms, both Gram-negative and Gram-positive, which are used to screen for activity against pathogenic bacteria. The antibacterial spectrum and potency of a particular compound may be determined in a standard test system. […] The antibacterial activity is described in terms of the minimum inhibitory concentration (MIC) determined by agar-dilution technique with an inoculum size of ~10^5 CFU.

[2] = test system: Ps. aeruginosa; assay: MIC by agar-dilution technique, Ps. aeruginosa A21; type: cell-based; details: Pseudomonas aeruginosa, No. Code A21, inoculum ~10^5 CFU
Description: as §1

[3] = test system: Staph. aureus; assay: MIC by agar-dilution technique, Staph. aureus A6; type: cell-based; details: Staphylococcus aureus, No. Code A6, inoculum ~10^5 CFU
Description: as §1

[4] = test system: Strep. pyogenes; assay: MIC by agar-dilution technique, Strep. pyogenes A1; type: cell-based; details: Streptococcus pyogenes, No. Code A1, inoculum ~10^5 CFU
Description: as §1

[5] = test system: Ent. cloacae; assay: MIC by agar-dilution technique, Ent. cloacae A13; type: cell-based; details: Enterobacter cloacae, No. Code A13, inoculum ~10^5 CFU
Description: as §1

[6] = test system: Serratia marescens; assay: MIC by agar-dilution technique, Serratia marescens A16; type: cell-based; details: No. Code A16, inoculum ~10^5 CFU
Description: as §1

[7] = test system: Proteus mirabilis; assay: MIC by agar-dilution technique, Proteus mirabilis A18; type: cell-based; details: No. Code A18, inoculum ~10^5 CFU
Description: as §1

[8] = test system: K. aerogenes; assay: MIC by agar-dilution technique, K. aerogenes A10; type: cell-based; details: Klebsiella aerogenes, No. Code A10, inoculum ~10^5 CFU
Description: as §1

[9] = test system: bacterial infection; assay: mouse protection test (PD50); type: in vivo; details: subcutaneous
[10] = overt toxic symptoms or side effects in mice; type: in vivo; details: single dose of 2 g./kg.
Protocol: Similarly the compound 7-(imidazol-2-yl)amino-3-(2-methyl-1,3,4-thiadiazol-5-yl)thiomethylceph-3- em-4-carboxylic acid was administered both orally and subcutaneously to mice at a single dose of 2 g./kg.

Structure (SMILES)	MIC [1] [µg/mL]	MIC [2] [µg/mL]	MIC [3] [µg/mL]	MIC [4] [µg/mL]	MIC [5] [µg/mL]	MIC [6] [µg/mL]	MIC [7] [µg/mL]	MIC [8] [µg/mL]	dose relative to minimum effective dose which protected 50% of the mice against bacterial infection (PD50) ([9]; dose 100 mg./kg.)	other results
CC(=O)OCC1=C(C(=O)O)N2C(=O)[C@@H](Nc3nc4ccccc4[nH]3)[C@H]2SC1	2 (≈ 5.15 µM)	> 64	2 (≈ 5.15 µM)	2 (≈ 5.15 µM)	> 64	64 (≈ 165 µM)	4 (≈ 10.3 µM)	4 (≈ 10.3 µM)		
CC1=C(C(=O)O)N2C(=O)[C@@H](NC3=NCCN3)[C@H]2SC1	8 (≈ 28.3 µM)	> 256	> 256	256 (≈ 907 µM)	8 (≈ 28.3 µM)	32 (≈ 113 µM)	256 (≈ 907 µM)	8 (≈ 28.3 µM)		
CC(=O)OCC1=C(C(=O)O)N2C(=O)[C@@H](Nc3nc4c(O)cccc4[nH]3)[C@H]2SC1 [3-acetoxymethyl-7-(4-hydroxybenzimidazol-2-yl)aminoceph-3-em-4-carboxylic acid]										dose relative to minimum effective dose which protected 50% of the mice against bacterial infection (PD50) ([9]; dose 200 mg./kg.): at least ten times
CC(=O)OCC1=C(C(=O)O)N2C(=O)[C@@H](Nc3nc(-c4ccc(N(C)C)cc4)c[nH]3)[C@H]2SC1 [3-acetoxymethyl-7-[4-(4-dimethylamino)phenylimidazol-2-yl]aminoceph-3-em-4-carboxylic acid]									at least ten times	
CC(=O)OCC1=C(C(=O)O)N2C(=O)[C@@H](Nc3ncc[nH]3)[C@H]2SC1 [3-acetoxymethyl-7-imidazol-2-yl)aminoceph-3-em-4-carboxylic acid]									at least ten times	
Cn1nnnc1SCC1=C(C(=O)O)N2C(=O)[C@@H](Nc3ncc[nH]3)[C@H]2SC1 [7-(imidazol-2-yl)amino-3-(1H-1-methyltetrazol-5-yl)thiomethylceph-3-em-4-carboxylic acid]									at least ten times	
Cc1nnc(SCC2=C(C(=O)O)N3C(=O)[C@@H](Nc4ncc[nH]4)[C@H]3SC2)s1 [7-(imidazol-2-yl)amino-3-(2-methyl-1,3,4-thiadiazol-5-yl)thiomethylceph-3-em-4-carboxylic acid]										overt toxic symptoms or side effects ([10]; oral): no overt toxic symptoms or side effects were noted; overt toxic symptoms or side effects ([10]; subcutaneous): no overt toxic symptoms or side effects were noted
CC(=O)OCC1=C(C(=O)O)N2C(=O)[C@@H](Nc3ncc[nH]3)[C@H]2SC1 [drawing 38]	0.12 (≈ 0.355 µM)	> 256	32 (≈ 94.6 µM)	16 (≈ 47.3 µM)	4 (≈ 11.8 µM)	1 (≈ 2.96 µM)	32 (≈ 94.6 µM)	0.5 (≈ 1.48 µM)		

Source: patent publication US4463173A, “Cephalosporin derivatives” (ICI Pharma, priority 1979, dated 1984)
